Measurements from patent US9840520B2, “Heterocyclic hydroxamic acids as protein deacetylase inhibitors and dual protein deacetylase-protein kinase inhibitors and methods of use thereof” (The Regents of the University of Colorado, A Body Corporate, priority 2014, dated 2017).

Assays:
786-0 = assay: NCI60 tumour cell line screen, 786-0; format: cell-based; conditions: Homo sapiens; 786-0, Renal Cancer
A498 = assay: NCI60 tumour cell line screen, A498; format: cell-based; conditions: Homo sapiens; A498, Renal Cancer
ACHN = assay: NCI60 tumour cell line screen, ACHN; format: cell-based; conditions: Homo sapiens, Renal Cancer
CAKI-1 = assay: NCI60 tumour cell line screen, CAKI-1; format: cell-based; conditions: Homo sapiens; CAKI-1, Renal Cancer
RXF393 = assay: NCI60 tumour cell line screen, RXF393; format: cell-based; conditions: Homo sapiens, RXF 393; RXF393, Renal Cancer
SN12C = assay: NCI60 tumour cell line screen, SN12C; format: cell-based; conditions: Homo sapiens, Renal Cancer
TK-10 = assay: NCI60 tumour cell line screen, TK-10; format: cell-based; conditions: Homo sapiens; TK-10, Renal Cancer
UO-31 = assay: NCI60 tumour cell line screen, UO-31; format: cell-based; conditions: Homo sapiens; UO-31, Renal Cancer
A549/ATCC = assay: NCI60 tumour cell line screen, A549/ATCC; format: cell-based; conditions: Homo sapiens, Non-Small Cell Lung Cancer
HOP-62 = assay: NCI60 tumour cell line screen, HOP-62; format: cell-based; conditions: Homo sapiens; HOP-62, Non-Small Cell Lung Cancer
NCI-H226 = assay: NCI60 tumour cell line screen, NCI-H226; format: cell-based; conditions: Homo sapiens; NCI-H226, Non-Small Cell Lung Cancer
NCI-H23 = assay: NCI60 tumour cell line screen, NCI-H23; format: cell-based; conditions: Homo sapiens; NCI-H23, Non-Small Cell Lung Cancer
NCI-H322M = assay: NCI60 tumour cell line screen, NCI-H322M; format: cell-based; conditions: Homo sapiens, Non-Small Cell Lung Cancer
NCI-H460 = assay: NCI60 tumour cell line screen, NCI-H460; format: cell-based; conditions: Homo sapiens; NCI-H460, Non-Small Cell Lung Cancer
NCI-H522 = assay: NCI60 tumour cell line screen, NCI-H522; format: cell-based; conditions: Homo sapiens; NCI-H522, Non-Small Cell Lung Cancer
CCRF-CEM = assay: NCI60 tumour cell line screen, CCRF-CEM; format: cell-based; conditions: Homo sapiens, Leukemia
HL-60(TB) = assay: NCI60 tumour cell line screen, HL-60(TB); format: cell-based; conditions: Homo sapiens, Leukemia
K-562 = assay: NCI60 tumour cell line screen, K-562; format: cell-based; conditions: Homo sapiens, K562; K-562, Leukemia
MOLT-4 = assay: NCI60 tumour cell line screen, MOLT-4; format: cell-based; conditions: Homo sapiens; MOLT-4, Leukemia
RPMI-8226 = assay: NCI60 tumour cell line screen, RPMI-8226; format: cell-based; conditions: Homo sapiens; RPMI-8226, Leukemia
SR = assay: NCI60 tumour cell line screen, SR; format: cell-based; conditions: Homo sapiens, Leukemia
LOXIMVI = assay: NCI60 tumour cell line screen, LOXIMVI; format: cell-based; conditions: Homo sapiens, LOX IMVI, Melanoma
MALME-3M = assay: NCI60 tumour cell line screen, MALME-3M; format: cell-based; conditions: Homo sapiens, Melanoma
M14 = assay: NCI60 tumour cell line screen, M14; format: cell-based; conditions: Homo sapiens; M14, Melanoma
MDA-MB-435 = assay: NCI60 tumour cell line screen, MDA-MB-435; format: cell-based; conditions: Homo sapiens; MDA-MB-435, Melanoma
SK-MEL-2 = assay: NCI60 tumour cell line screen, SK-MEL-2; format: cell-based; conditions: Homo sapiens; SK-MEL-2, Melanoma
SK-MEL-28 = assay: NCI60 tumour cell line screen, SK-MEL-28; format: cell-based; conditions: Homo sapiens; SK-MEL-28, Melanoma
SK-MEL-5 = assay: NCI60 tumour cell line screen, SK-MEL-5; format: cell-based; conditions: Homo sapiens; SK-MEL-5, Melanoma
UACC-257 = assay: NCI60 tumour cell line screen, UACC-257; format: cell-based; conditions: Homo sapiens; UACC-257, Melanoma
UACC-62 = assay: NCI60 tumour cell line screen, UACC-62; format: cell-based; conditions: Homo sapiens; UACC-62, Melanoma
IGROV1 = assay: NCI60 tumour cell line screen, IGROV1; format: cell-based; conditions: Homo sapiens, IGROV-1; IGROV1, Ovarian Cancer
OVCAR-3 = assay: NCI60 tumour cell line screen, OVCAR-3; format: cell-based; conditions: Homo sapiens; OVCAR-3, Ovarian Cancer
OVCAR-4 = assay: NCI60 tumour cell line screen, OVCAR-4; format: cell-based; conditions: Homo sapiens; OVCAR-4, Ovarian Cancer
OVCAR-5 = assay: NCI60 tumour cell line screen, OVCAR-5; format: cell-based; conditions: Homo sapiens; OVCAR-5, Ovarian Cancer
OVCAR-8 = assay: NCI60 tumour cell line screen, OVCAR-8; format: cell-based; conditions: Homo sapiens; OVCAR-8, Ovarian Cancer
NCI/ADR-RES = assay: NCI60 tumour cell line screen, NCI/ADR-RES; format: cell-based; conditions: Homo sapiens, Ovarian Cancer
SK-OV-3 = assay: NCI60 tumour cell line screen, SK-OV-3; format: cell-based; conditions: Homo sapiens; SK-OV-3, Ovarian Cancer
SF-268 = assay: NCI60 tumour cell line screen, SF-268; format: cell-based; conditions: Homo sapiens; SF-268, CNS Cancer
SF-295 = assay: NCI60 tumour cell line screen, SF-295; format: cell-based; conditions: Homo sapiens; SF-295, CNS Cancer
SF-539 = assay: NCI60 tumour cell line screen, SF-539; format: cell-based; conditions: Homo sapiens; SF-539, CNS Cancer
SNB-19 = assay: NCI60 tumour cell line screen, SNB-19; format: cell-based; conditions: Homo sapiens; SNB-19, CNS Cancer
SNB-75 = assay: NCI60 tumour cell line screen, SNB-75; format: cell-based; conditions: Homo sapiens; SNB-75, CNS Cancer
U251 = assay: NCI60 tumour cell line screen, U251; format: cell-based; conditions: Homo sapiens, U-251; U251, CNS Cancer
MCF7 = assay: NCI60 tumour cell line screen, MCF7; format: cell-based; conditions: Homo sapiens; MCF7, Breast Cancer
MDA-MB-231/ATCC = assay: NCI60 tumour cell line screen, MDA-MB-231/ATCC; format: cell-based; conditions: Homo sapiens, Breast Cancer
HS578T = assay: NCI60 tumour cell line screen, HS578T; format: cell-based; conditions: Homo sapiens, Hs-578T, Breast Cancer
BT-549 = assay: NCI60 tumour cell line screen, BT-549; format: cell-based; conditions: Homo sapiens; BT-549, Breast Cancer
T-47D = assay: NCI60 tumour cell line screen, T-47D; format: cell-based; conditions: Homo sapiens, T47D, Breast Cancer
MDA-MB-468 = assay: NCI60 tumour cell line screen, MDA-MB-468; format: cell-based; conditions: Homo sapiens; MDA-MB-468, Breast Cancer
COLO205 = assay: NCI60 tumour cell line screen, COLO205; format: cell-based; conditions: Homo sapiens, COLO 205; COLO205, Colon Cancer
HCC-2998 = assay: NCI60 tumour cell line screen, HCC-2998; format: cell-based; conditions: Homo sapiens; HCC-2998, Colon Cancer
HCT-116 = assay: NCI60 tumour cell line screen, HCT-116; format: cell-based; conditions: Homo sapiens; HCT-116, Colon Cancer
HCT-15 = assay: NCI60 tumour cell line screen, HCT-15; format: cell-based; conditions: Homo sapiens; HCT-15, Colon Cancer
HT29 = assay: NCI60 tumour cell line screen, HT29; format: cell-based; conditions: Homo sapiens, HT-29; HT29, Colon Cancer
KM12 = assay: NCI60 tumour cell line screen, KM12; format: cell-based; conditions: Homo sapiens; KM12, Colon Cancer
SW-620 = assay: NCI60 tumour cell line screen, SW-620; format: cell-based; conditions: Homo sapiens; SW-620, Colon Cancer
PC-3 = assay: NCI60 tumour cell line screen, PC-3; format: cell-based; conditions: Homo sapiens; PC-3, Prostate Cancer
DU-145 = assay: NCI60 tumour cell line screen, DU-145; format: cell-based; conditions: Homo sapiens; DU-145, Prostate Cancer
HDAC-1 = HDAC-1 (Homo sapiens, UniProt Q13547); assay: HDAC Fluorescent Activity Assay (Fluor de Lys), HDAC-1
HDAC-2 = HDAC-2 (Homo sapiens, UniProt Q92769); assay: HDAC Fluorescent Activity Assay (Fluor de Lys), HDAC-2
HDAC-3 = HDAC-3 (Homo sapiens, UniProt O15379); assay: HDAC Fluorescent Activity Assay (Fluor de Lys), HDAC-3
HDAC-8 = HDAC-8 (Homo sapiens, UniProt Q9BY41); assay: HDAC Fluorescent Activity Assay (Fluor de Lys), HDAC-8
HDAC-4 = HDAC-4 (Homo sapiens, UniProt P56524); assay: HDAC Fluorescent Activity Assay (Fluor de Lys), HDAC-4
HDAC-5 = HDAC-5 (Homo sapiens, UniProt Q9UQL6); assay: HDAC Fluorescent Activity Assay (Fluor de Lys), HDAC-5
HDAC-7 = HDAC-7 (Homo sapiens, UniProt Q8WUI4); assay: HDAC Fluorescent Activity Assay (Fluor de Lys), HDAC-7
HDAC-9 = HDAC-9 (Homo sapiens, UniProt Q9UKV0); assay: HDAC Fluorescent Activity Assay (Fluor de Lys), HDAC-9
HDAC-6 = HDAC-6 (Homo sapiens, UniProt Q9UBN7); assay: HDAC Fluorescent Activity Assay (Fluor de Lys), HDAC-6
HDAC-10 = HDAC-10 (Homo sapiens, UniProt Q969S8); assay: HDAC Fluorescent Activity Assay (Fluor de Lys), HDAC-10
HDAC-11 = HDAC-11 (Homo sapiens, UniProt Q96DB2); assay: HDAC Fluorescent Activity Assay (Fluor de Lys), HDAC-11
HDAC-11, sequence (Q96DB2 whole entry): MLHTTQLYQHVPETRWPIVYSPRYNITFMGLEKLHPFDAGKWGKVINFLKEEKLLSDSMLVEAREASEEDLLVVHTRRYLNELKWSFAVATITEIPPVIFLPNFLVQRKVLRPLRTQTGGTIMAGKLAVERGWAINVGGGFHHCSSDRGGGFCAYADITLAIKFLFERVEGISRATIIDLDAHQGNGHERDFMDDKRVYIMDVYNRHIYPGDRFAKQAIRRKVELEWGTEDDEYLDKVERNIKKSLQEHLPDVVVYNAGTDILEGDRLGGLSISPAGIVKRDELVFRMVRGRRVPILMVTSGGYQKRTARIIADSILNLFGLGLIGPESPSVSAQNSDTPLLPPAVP

HDAC-6, sequence (Q9UBN7 whole entry): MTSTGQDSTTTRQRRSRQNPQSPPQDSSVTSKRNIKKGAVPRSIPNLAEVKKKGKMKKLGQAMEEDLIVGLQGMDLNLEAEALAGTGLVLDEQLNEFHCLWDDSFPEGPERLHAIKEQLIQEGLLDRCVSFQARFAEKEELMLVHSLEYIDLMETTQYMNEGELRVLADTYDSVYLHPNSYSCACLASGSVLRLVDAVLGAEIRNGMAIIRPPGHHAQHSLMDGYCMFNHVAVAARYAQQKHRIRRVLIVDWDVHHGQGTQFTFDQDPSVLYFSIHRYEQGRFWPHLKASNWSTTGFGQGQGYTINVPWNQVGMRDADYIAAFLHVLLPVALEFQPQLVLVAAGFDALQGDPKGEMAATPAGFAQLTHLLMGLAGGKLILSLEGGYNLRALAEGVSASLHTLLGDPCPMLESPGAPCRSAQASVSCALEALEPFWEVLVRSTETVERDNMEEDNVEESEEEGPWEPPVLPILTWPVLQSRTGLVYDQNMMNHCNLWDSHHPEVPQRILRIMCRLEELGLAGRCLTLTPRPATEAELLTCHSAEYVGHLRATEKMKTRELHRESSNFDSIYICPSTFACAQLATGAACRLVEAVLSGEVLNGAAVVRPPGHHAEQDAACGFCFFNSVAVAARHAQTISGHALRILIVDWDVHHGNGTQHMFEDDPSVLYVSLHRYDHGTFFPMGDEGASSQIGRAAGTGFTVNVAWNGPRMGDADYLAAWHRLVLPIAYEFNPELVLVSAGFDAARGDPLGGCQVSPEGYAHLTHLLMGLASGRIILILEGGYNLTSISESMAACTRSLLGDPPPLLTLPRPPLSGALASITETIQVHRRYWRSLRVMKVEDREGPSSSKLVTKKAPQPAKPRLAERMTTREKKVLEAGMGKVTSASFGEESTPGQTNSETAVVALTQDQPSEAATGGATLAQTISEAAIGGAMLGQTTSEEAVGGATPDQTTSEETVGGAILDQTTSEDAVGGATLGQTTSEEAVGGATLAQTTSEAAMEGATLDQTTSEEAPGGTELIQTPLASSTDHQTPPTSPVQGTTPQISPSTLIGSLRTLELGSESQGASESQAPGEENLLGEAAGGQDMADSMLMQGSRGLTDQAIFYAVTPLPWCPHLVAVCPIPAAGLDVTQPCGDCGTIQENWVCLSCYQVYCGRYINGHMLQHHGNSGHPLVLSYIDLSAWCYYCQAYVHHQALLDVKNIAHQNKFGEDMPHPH
HDAC-5, sequence (Q9UQL6 whole entry): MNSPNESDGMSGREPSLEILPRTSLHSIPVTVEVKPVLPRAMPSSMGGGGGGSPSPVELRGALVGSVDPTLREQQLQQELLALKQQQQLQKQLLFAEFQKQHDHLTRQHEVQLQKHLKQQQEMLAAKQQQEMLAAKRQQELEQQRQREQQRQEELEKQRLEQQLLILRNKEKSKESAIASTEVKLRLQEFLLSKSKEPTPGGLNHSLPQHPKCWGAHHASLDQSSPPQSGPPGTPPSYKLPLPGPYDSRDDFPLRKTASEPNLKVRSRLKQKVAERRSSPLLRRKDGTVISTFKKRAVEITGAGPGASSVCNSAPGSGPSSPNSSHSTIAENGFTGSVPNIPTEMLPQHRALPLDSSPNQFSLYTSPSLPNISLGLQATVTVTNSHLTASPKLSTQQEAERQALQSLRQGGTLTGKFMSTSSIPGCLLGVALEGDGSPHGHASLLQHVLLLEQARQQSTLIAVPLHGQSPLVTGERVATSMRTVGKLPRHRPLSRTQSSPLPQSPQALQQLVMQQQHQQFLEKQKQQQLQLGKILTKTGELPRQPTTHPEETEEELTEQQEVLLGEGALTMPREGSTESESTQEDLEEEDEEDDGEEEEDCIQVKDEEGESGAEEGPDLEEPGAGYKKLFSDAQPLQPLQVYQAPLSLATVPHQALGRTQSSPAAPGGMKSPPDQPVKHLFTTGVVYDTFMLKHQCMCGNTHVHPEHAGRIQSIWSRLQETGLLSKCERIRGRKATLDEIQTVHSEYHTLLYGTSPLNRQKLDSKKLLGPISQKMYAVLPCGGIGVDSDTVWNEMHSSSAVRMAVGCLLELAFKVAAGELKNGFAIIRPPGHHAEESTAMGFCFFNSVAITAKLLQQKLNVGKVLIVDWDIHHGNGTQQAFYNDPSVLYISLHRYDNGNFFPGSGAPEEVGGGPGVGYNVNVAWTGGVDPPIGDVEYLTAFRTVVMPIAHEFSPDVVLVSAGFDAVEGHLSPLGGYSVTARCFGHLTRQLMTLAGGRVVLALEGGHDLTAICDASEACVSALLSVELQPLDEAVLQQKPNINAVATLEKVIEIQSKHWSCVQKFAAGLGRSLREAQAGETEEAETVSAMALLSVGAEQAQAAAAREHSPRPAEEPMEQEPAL
HDAC-7, sequence (Q8WUI4 whole entry): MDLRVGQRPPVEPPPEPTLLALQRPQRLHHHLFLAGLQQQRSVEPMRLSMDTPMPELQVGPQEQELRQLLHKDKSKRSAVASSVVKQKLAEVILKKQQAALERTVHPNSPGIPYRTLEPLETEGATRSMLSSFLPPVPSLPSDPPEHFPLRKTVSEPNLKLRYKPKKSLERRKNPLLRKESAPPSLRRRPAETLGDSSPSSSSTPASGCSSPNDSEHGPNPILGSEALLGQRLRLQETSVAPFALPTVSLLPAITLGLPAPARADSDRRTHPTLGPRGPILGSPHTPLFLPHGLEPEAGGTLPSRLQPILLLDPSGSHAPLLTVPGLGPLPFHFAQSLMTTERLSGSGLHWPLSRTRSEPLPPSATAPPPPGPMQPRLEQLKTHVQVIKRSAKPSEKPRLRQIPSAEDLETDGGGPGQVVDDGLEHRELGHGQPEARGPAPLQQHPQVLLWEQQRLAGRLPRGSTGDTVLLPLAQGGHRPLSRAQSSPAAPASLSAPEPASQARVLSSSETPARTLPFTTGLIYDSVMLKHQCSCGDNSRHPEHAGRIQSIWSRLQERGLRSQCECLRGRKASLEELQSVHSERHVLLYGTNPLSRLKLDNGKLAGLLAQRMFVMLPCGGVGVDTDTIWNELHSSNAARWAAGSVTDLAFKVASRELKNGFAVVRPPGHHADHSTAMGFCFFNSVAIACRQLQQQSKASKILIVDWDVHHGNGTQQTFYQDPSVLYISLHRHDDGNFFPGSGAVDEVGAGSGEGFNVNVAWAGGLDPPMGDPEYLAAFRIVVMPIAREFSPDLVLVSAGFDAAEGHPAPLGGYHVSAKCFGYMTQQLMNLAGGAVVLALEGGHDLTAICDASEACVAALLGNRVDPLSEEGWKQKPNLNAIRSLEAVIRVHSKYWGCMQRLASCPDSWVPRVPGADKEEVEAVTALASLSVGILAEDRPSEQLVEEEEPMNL
HDAC-10, sequence (Q969S8 whole entry): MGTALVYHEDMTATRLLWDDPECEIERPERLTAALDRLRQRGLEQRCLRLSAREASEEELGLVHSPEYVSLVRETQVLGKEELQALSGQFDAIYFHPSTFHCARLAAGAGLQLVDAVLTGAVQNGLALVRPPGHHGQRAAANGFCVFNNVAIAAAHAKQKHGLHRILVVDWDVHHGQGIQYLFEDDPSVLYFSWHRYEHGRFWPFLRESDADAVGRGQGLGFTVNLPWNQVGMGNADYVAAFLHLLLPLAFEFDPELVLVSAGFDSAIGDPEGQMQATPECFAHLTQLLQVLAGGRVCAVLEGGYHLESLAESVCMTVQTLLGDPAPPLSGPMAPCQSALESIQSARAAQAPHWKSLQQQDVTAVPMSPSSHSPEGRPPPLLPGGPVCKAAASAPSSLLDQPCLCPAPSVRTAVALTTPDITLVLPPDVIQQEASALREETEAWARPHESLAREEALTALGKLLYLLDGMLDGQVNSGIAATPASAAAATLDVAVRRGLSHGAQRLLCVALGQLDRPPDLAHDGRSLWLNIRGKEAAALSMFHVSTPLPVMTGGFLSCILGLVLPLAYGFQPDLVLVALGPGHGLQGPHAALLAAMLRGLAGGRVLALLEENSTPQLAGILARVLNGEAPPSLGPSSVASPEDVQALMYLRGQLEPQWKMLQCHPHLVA
HDAC-8, sequence (Q9BY41 whole entry): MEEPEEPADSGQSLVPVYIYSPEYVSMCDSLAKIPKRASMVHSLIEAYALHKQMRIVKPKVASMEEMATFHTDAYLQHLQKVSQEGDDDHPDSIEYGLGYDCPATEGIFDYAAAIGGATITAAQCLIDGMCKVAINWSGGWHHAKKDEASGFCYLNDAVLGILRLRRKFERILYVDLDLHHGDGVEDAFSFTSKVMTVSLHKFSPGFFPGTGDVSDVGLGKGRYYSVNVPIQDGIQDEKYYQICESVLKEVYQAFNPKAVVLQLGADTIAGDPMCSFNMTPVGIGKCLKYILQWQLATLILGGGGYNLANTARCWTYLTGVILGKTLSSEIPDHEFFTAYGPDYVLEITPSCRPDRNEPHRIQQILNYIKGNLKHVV

Structure (SMILES): O=C(CCCCCOc1ccc(Nc2nc(NC3CCCCC3)c3nc[nH]c3n2)cc1)NO [Example 3, 6-(4-(6-(cyclohexylamino)-9H-purin-2-ylamino)phenoxy)-N-hydroxyhexanamide]
- GI50 (786-0): 4.61 µM
- GI50 (A498): 0.195 µM
- GI50 (ACHN): 3.57 µM
- GI50 (CAKI-1): 4.68 µM
- GI50 (RXF393): 1.9 µM
- GI50 (SN12C): 3.23 µM
- GI50 (TK-10): 2.68 µM
- GI50 (UO-31): 3.52 µM
- GI50 (A549/ATCC): 2.3 µM
- GI50 (HOP-62): 2.96 µM
- GI50 (NCI-H226): 2.88 µM
- GI50 (NCI-H23): 4.73 µM
- GI50 (NCI-H322M): 3 µM
- GI50 (NCI-H460): 2.04 µM
- GI50 (NCI-H522): 2.72 µM
- GI50 (CCRF-CEM): 0.667 µM
- GI50 (HL-60(TB)): 2.95 µM
- GI50 (K-562): 2.03 µM
- GI50 (MOLT-4): 1.78 µM
- GI50 (RPMI-8226): 2.81 µM
- GI50 (SR): 0.669 µM
- GI50 (LOXIMVI): 1.18 µM
- GI50 (MALME-3M): 2.49 µM
- GI50 (M14): 1.96 µM
- GI50 (MDA-MB-435): 2.46 µM
- GI50 (SK-MEL-2): 2.93 µM
- GI50 (SK-MEL-28): 3.64 µM
- GI50 (SK-MEL-5): 2.82 µM
- GI50 (UACC-257): 2.94 µM
- GI50 (UACC-62): 2.22 µM
- GI50 (IGROV1): 2.24 µM
- GI50 (OVCAR-3): 2.17 µM
- GI50 (OVCAR-4): 3.82 µM
- GI50 (OVCAR-5): 2.26 µM
- GI50 (OVCAR-8): 2.8 µM
- GI50 (NCI/ADR-RES): 13.5 µM
- GI50 (SK-OV-3): 2.52 µM
- GI50 (SF-268): 3.83 µM
- GI50 (SF-295): 2.35 µM
- GI50 (SF-539): 1.57 µM
- GI50 (SNB-19): 5.96 µM
- GI50 (SNB-75): 1.69 µM
- GI50 (U251): 1.96 µM
- GI50 (MCF7): 1.46 µM
- GI50 (MDA-MB-231/ATCC): 1.93 µM
- GI50 (HS578T): 1.61 µM
- GI50 (BT-549): 5.51 µM
- GI50 (T-47D): 2.33 µM
- GI50 (MDA-MB-468): 2.4 µM
- GI50 (COLO205): 1.26 µM
- GI50 (HCC-2998): 3.58 µM
- GI50 (HCT-116): 1.45 µM
- GI50 (HCT-15): 4.3 µM
- GI50 (HT29): 2.54 µM
- GI50 (KM12): 1.74 µM
- GI50 (SW-620): 0.895 µM
- GI50 (PC-3): 2.98 µM
- GI50 (DU-145): 2.51 µM

Structure (SMILES): Cn1cnc2c(NC3CCCCC3)nc(Nc3ccc(OCCCCCCC(=O)NO)cc3)nc21 [Example 8, 7-(4-(6-(Cyclohexylamino)-9-methyl-9H-purin-2-ylamino)phenoxy)-N-hydroxyheptanamide]
- IC50 (HDAC-1): 0.023 µM
- IC50 (HDAC-2): 0.124 µM
- IC50 (HDAC-3): 0.14 µM
- IC50 (HDAC-8): 0.268 µM
- IC50 (HDAC-4): > 100 µM
- IC50 (HDAC-5): > 100 µM
- IC50 (HDAC-7): > 100 µM
- IC50 (HDAC-9): > 100 µM
- IC50 (HDAC-6): 0.0068 µM
- IC50 (HDAC-10): 0.019 µM
- IC50 (HDAC-11): 0.012 µM
